Measured values: patent US20050065071A1, “Cyclic analogs of human parathyroid hormone for the treatment of conditions characterized by hyperproliferative skin cells” (National Research Council of Canada, priority 2003, published 2005)
Bridges are numbered along the chain shown (N, C = ends). Where no end group is shown, it is not given here.

System: skin cells
Test: Topical administration to SKH-1 hairless mice, skin cell proliferation by ^3H-thymidine incorporation
Type: in vivo
Details: 1 μg, 10 μg or 50 μg once a day, 7 days, analog given with Novasome, compared with hPTH-(1-34) and untreated control (FIG. 6)
Procedure: FIG. 6 is a histogram showing the effects of no treatment (Control) or of topical administration of 1 μg, 10 μg, or 50 μg of hPTH-(1-34) (1-34) or [Leu^27]cyclo(Glu^22-Lys^26)-hPTH-(1-31)-NH2 (c1-c31) to SKH-1 mice on the proliferation of skin cells, as measured by ^3H-thymidine incorporation (counts per minute/μg protein) in SKH-1 mice after 7 days of administration.
SKH-1 hairless mice were administered the human parathyroid hormone hPTH analog [Leu^27]cyclo(Glu^22-Lys^26)-hPTH-(1-31)-NH2 with Novasome (a liposomal formulation available, for example, from IGI, Inc., Buena, N.J.) or hPTH-(1-34) at dosages of 1 μg, 10 μg, or 50 μg once a day, or were left untreated (control). On day 7, the mice were injected twice with ^3H-thymidine, and on day 8, the mice were injected with ^3H-thymidine and bromodeoxyuridine (1.5 mg/mouse) and sacrificed within 3 hours. ^3H-thymidine incorporation was then assessed, using standard methods. The results of this study are shown in FIG. 6, which is a histogram showing the effects of no treatment (Control) or of topical administration of 1 μg, 10 μg, or 50 μg of hPTH-(1-34) (1-34) or [Leu^27]cyclo(Glu^22-Lys^26)-hPTH-(1-31)-NH2 (c1-c31) on proliferation of skin cells, as measured by ^3H-thymidine incorporation (counts per minute/μg protein) in SKH-1 mice. […]

| Substance | proliferation of skin cells, as measured by ^3H-thymidine incorporation |
| --- | --- |
| [Leu^27]cyclo(Glu^22-Lys^26)-hPTH-(1-31)-NH2 (SVSEIQLMHNLGKHLNSMERVEWLRKLLQDV-NH2; lactam 22-26; N-terminus assumed; SMILES CC[C@H](C)[C@H](NC(=O)[C@H](CCC(=O)O)NC(=O)[C@H](CO)NC(=O)[C@@H](NC(=O)[C@@H](N)CO)C(C)C)C(=O)N[C@@H](CCC(N)=O)C(=O)N[C@@H](CC(C)C)C(=O)N[C@@H](CCSC)C(=O)N[C@@H](Cc1c[nH]cn1)C(=O)N[C@@H](CC(N)=O)C(=O)N[C@@H](CC(C)C)C(=O)NCC(=O)N[C@@H](CCCCN)C(=O)N[C@@H](Cc1c[nH]cn1)C(=O)N[C@@H](CC(C)C)C(=O)N[C@@H](CC(N)=O)C(=O)N[C@@H](CO)C(=O)N[C@@H](CCSC)C(=O)N[C@@H](CCC(=O)O)C(=O)N[C@@H](CCCNC(=N)N)C(=O)N[C@H](C(=O)N[C@H]1CCC(=O)NCCCC[C@@H](C(=O)N[C@@H](CC(C)C)C(=O)N[C@@H](CC(C)C)C(=O)N[C@@H](CCC(N)=O)C(=O)N[C@@H](CC(=O)O)C(=O)N[C@H](C(N)=O)C(C)C)NC(=O)[C@H](CCCNC(=N)N)NC(=O)[C@H](CC(C)C)NC(=O)[C@H](Cc2c[nH]c3ccccc23)NC1=O)C(C)C) | significantly more effective at inhibiting ^3H-thymidine incorporation than hPTH-(1-34) |
| cyclo(Lys^26-Asp^30) [Leu^27]-hPTH-(1-31)-NH2 | Decreases Skin Cell Proliferation |
